The nature of data set [1]: stability of the active agent in culture medium (HPLC quantification). Format: physicochemical. Particulars: for halving time in culture medium: culture medium of ex. 10; for amount still present at the end of the test: culture medium of ex. 10, 72 h. An excerpt: The instrumental conditions are the same as those described above for viniferine. The coefficient of molar extinction of both glucosides is almost the same as the one of the corresponding aglycones, so that they can be added as such after carrying out a correction for molecular weights (Mattivi et al. Isolation, characterization, and evolution in red wine vinification of resveratrol monomers, J. Agric. Food Chem., 1995, 43, 7, 1820-1823).
Zeitschdift fur Lebensmittel-Untersuchung und Forschung, 1993, 196, 522-525. In addition to what is contained in the aforesaid document, it has been verified that the method is suitable for all monomer stilbenes, both free and glucosides, and that the eluted fraction of ethyl acetate can be dried under a light flow of nitrogen, in case it is necessary to carry out the exchange in another solvent and/or to further reduce the limits of quantification.
Said techniques can be used for instance to control the stability of the active agent in culture mediums, and therefore to support in vitro experimental models which are going to be described in the following examples. For instance, the culture for means described in ex.

Data set [2] concerns human lymphocytes. Nature of the data set: expression of surface antigens CD16, CD4 and CD95 in lymphocytes. It is filed as cell-based. The note with it: dose of 5 mcg/ml. How it is done: (§1) Mononucleated cells of human peripheral blood (PBMC) deriving from healthy subjects have been obtained by separation on gradient (Ficoll-Hypaque) of cells deriving from buffy coat.
PBMC have been resuspended in a concentration of 1×10^6/ml and incubated for different periods of time with various doses of resveratrol. The cells have then been incubated with one or more fluorescent monoclonal antibodies, each being specific for a surface antigen (CD4, CD8, CD16 and CD95), and they have undergone a cytofluorometric analysis using a cytofluorometer FACscan (BD).
(§2) Mononucleated cells of human peripheral blood (PBMC) have been incubated for 18 h with resveratrol in a concentration of 0.625, 1.25, 2.5, 5, 10 and 20 mcg/ml. At the end of the incubation the cells have been tested for their natural cytotoxic activity (NK) against the human erythroleukemic line K 562. […] On the contrary, at doses of 10 and 20 mcg/ml resveratrol induces an inhibition of NK activity.

The test system of data set [3] is CD8+ T cells activated with anti-CD3/CD28. Kind of data set: cytofluorometric analysis of intracytoplasmatic cytokine levels, CD8+ T cells. Format: cell-based, human.
Description: as §1
(§3) In vitro production of cytokines induced by activation with monoclonal anti-CD3 antibody carried out by the various T cell underpopulations in PBMC has been evaluated by means of a simultaneous cytofluorometric determination of the intracytoplasmatic cytokine content and of the expression of surface antigens in every single cell. By using said method it has been possible to evaluate the production of cytokines by single cell under-populations without previously physically separating them, and therefore in presence of the interactions in the production of cytokines which take place in physiological systems. The execution of said method is made possible by the use of saponin as reversible permeabilizing agent of cell membrane. In short, PBMC have been resuspended in a concentration of 1×10^6/ml, activated by treatment with anti-CD3 (10 ng/ml) and incubated with various doses of resveratrol. After 3 days of culture at 37° C. in a CO2 incubator, the cells have been treated with anti-CD28 (2 ng/ml) and with resveratrol in the same doses previously used. After further 3 days of treatment, the cells have been incubated with a fluorescent monoclonal antibody specific for a surface antigen (CD4 or CD8), resuspended in a medium with the addition of 0.3% saponin, and marked with an optimal dose of a mixture of anti-cytokine monoclonal antibodies conjugated with various fluorochromes. The samples thus treated have then undergone cytofluorometric analysis using a cytofluorometer FACscan (BD).
Mononucleated cells of human peripheral blood (PBMC) have been activated by incubation with anti-CD3+ anti-CD28 and then incubated with different doses of resveratrol (or DMSO as control) as described above. Non-activated cells deriving from the same buffy coat have been used as control. The percentage of T lymphocytes CD4+ and CD8+ positive for IL2, IL4 and IFN-γ has then been analyzed by means of flow cytofluorometry. […] The activity peak varies according to the examined cytokine, and precisely: 1.25-2.5 for IFN-γ (FIG. 1A), 0.625 for IL2 (FIG. 1B) and 2.5 for IL4 (FIG. 1C).

The subject of data set [4] is human erythroleukemic line K 562. Kind of data set: natural killer (NK) activity of PBMC, 51Cr release. Format: cell-based. The note with it: 18 h incubation. How it is done: as §1
PBMC in a concentration of 2×10^6 cells/ml have been treated in vitro with different doses of resveratrol for 18 h. At the end of the incubation the cells have been tested for their natural cytotoxic activity (NK) against the human erythroleukemic line K 562. The cytotoxic activity of the effect-producing cells incubated for 4 hours at 37° C. with K562 has been determined using a cytotoxicity standard test based on the release of ^51Cr by target cells.
as §2

The subject of data set [5] is lymphocytes activated with anti-CD3/CD28. Kind of data set: apoptosis of activated lymphocytes. Format: cell-based, human.
Description: as §1
PBMC resuspended in a concentration of 1×10^6/ml have been fixed in acetone/methanol 1:4, treated with 100 KU/ml of RNase and marked with propydium iodide (50 mcg/ml). The cells have then been analyzed by means of flow cytofluorometry using a cytometer FACscan.
PBMC resuspended in a concentration of 1×10^6/ml have been fixed in 4% paraformaldehyde, treated with 100 KU/ml of RNase and marked with propydium iodide. The cells have then been analyzed by means of observation with a confocal microscope (LEIKA TCS 4D).
Mononucleated cells of human peripheral blood (PBMC) have been activated by incubation with anti-CD3+ anti-CD28 and then incubated with different doses of resveratrol (or DMSO as control) as described above. Non-activated cells deriving from the same buffy coat have been used as control.

Data set [6] deals with MT-2 cells. Nature of the data set: cytotoxic activity of T lymphocytes (CTL), 51Cr release. Format: cell-based, human. Particulars: 5 days. How it is done:
Mononucleated cells of human peripheral blood (PBMC) deriving from healthy subjects have been obtained by separation on gradient (Ficoll-Hypaque) of cells deriving from buffy coat. […] Mononucleated cells of human peripheral blood (PBMC) have been incubated with resveratrol in a concentration of 0.625, 1.25, 2.5, 5 and 10 mcg/ml in presence of MT-2 cells (line of human T cells deriving from blood of umbilical cord infected with HTLV1) for 5 days at 37° C. At the end of the incubation the cells have been tested for their cytotoxic activity against said MT-2 cells.

Data set [7] has as its system CD4+ T cells activated with anti-CD3/CD28. Nature of the data set: cytofluorometric analysis of intracytoplasmatic cytokine levels, CD4+ T cells. Format: cell-based, human.
Description: as §1, §3
Mononucleated cells of human peripheral blood (PBMC) have been activated by incubation with anti-CD3+ anti-CD28 and then incubated with different doses of resveratrol (or DMSO as control) as described above. Non-activated cells deriving from the same buffy coat have been used as control. The percentage of T lymphocytes CD4+ and CD8+ positive for IL2, IL4 and IFN-γ has then been analyzed by means of flow cytofluorometry. […]

Data set [8] has as its system lymphocytes activated with anti-CD3/CD28. Kind of data set: cell mortality of activated lymphocytes. It is filed as cell-based, human. How it is done: (§4) Mononucleated cells of human peripheral blood (PBMC) deriving from healthy subjects have been obtained by separation on gradient (Ficoll-Hypaque) of cells deriving from buffy coat. Cell mortality has been evaluated by a cellular count in trypan blue and/or by flow cytometry using a cytometer FACscan (Becton-Dickinson), determining the vitality of unfixed cells which have been marked with propydium iodide (PI). Mononucleated cells of human peripheral blood (PBMC) have been activated by incubation with anti-CD3+ anti-CD28 and then incubated with different doses of resveratrol (or DMSO as control) as described above. Non-activated cells deriving from the same buffy coat have been used as control.

For data set [9], the system named is PBMC activated with anti-CD3+ anti-CD28. Kind of data set: percentage of CD4+ and CD8+ T lymphocytes in activated PBMC. It is filed as cell-based, human. How it is done:
Mononucleated cells of human peripheral blood (PBMC) deriving from healthy subjects have been obtained by separation on gradient (Ficoll-Hypaque) of cells deriving from buffy coat. PBMC have been resuspended in a concentration of 1×10^6/ml and incubated for different periods of time with various doses of resveratrol.

The subject of data set [10] is lymphocytes activated with anti-CD3/CD28. Kind of data set: cell proliferation (Coulter count) and DNA synthesis (BrdU incorporation). Format: cell-based, human.
Description: as §4, with “replication” for “mortality”, “carried out using a Coulter Counter. DNA synthesis has been measured by the test of incorporation of bromodeoxyuridine (BrdU) evaluated” for “in trypan blue and/or”, “(Becton-Dickinson).” for “(Becton-Dickinson), determining the vitality of unfixed cells which have been marked with propydium iodide (PI).”
In general terms: Incorporation of labelled thymidine or its analogues reports DNA synthesis.

Data set [11] relates to platelet aggregation. Particulars: cited from earlier work.
Data set [12] concerns cyclo-oxygenase. The note with it: cited from earlier work.
Data set [13] has as its system skin cancer induced by carcinogenic substances. Particulars: in vivo, murine model of skin cancer; cited from earlier work.
Data set [14] has as its system line HL60 (human promyelocytic acute leukemia). The note with it: cited from earlier work.
The subject of data set [15] is line MCF-7 derived from mammary adenocarcinoma. Particulars: in vitro; cited from earlier work.

In the case of `Oc1ccc(/C=C\c2cc(O)cc(O)c2)cc1` [cis-resveratrol], in [1], the “halving time in culture medium” value stood at 38 h and the “amount still present at the end of the test” value is reported as “about 25%”.

For the compound `Oc1ccc(C=Cc2cc(O)cc(O)c2)cc1` [resveratrol], the “cells which can co-express CD16 and CD95 (CD16+/CD95+ cells)” value in [2] is given as “significant increase”. For the same compound, the “percentage of CD4+/CD95+ cells” value in [2] is given as “does not induce any variation”. Also, the “percentage of CD8+ cells which can synthesize all tested cytokines” value in data set [3] (dose of 5 and more significantly 10 mcg/ml) is “inhibition”. Further, the “activity peak, CD8+ cells positive for IFN-γ” value in data set [3] (dose of peak stimulation, FIG. 1A) is 1.25 to 2.5 µg/mL. The “activity peak, CD8+ cells positive for IL2” value in data set [3] (dose of peak stimulation, FIG. 1B) worked out at 0.625 µg/mL. Also, the “activity peak, CD8+ cells positive for IL4” value in [3] (dose of peak stimulation, FIG. 1C) stood at 2.5 µg/mL. In addition, the “percentage of T cells CD8+ positive for intracellular IFN-γ, IL2 and IL4” value in data set [3] (dose range 0.625-2.5 mcg/ml, with respect to controls) was “significant increase”. Further, the NK activity result in [4] (dose range of 0.625-5 mcg/ml) is listed as “statistically significant increase”; in data set [4] (doses of 10 and 20 mcg/ml) it was “inhibition”. The “percentage of apoptotic cells” value in data set [5] (dose range of 2.5-10 mcg/ml) is on record as “dose-dependent increase”. Moreover, the “apoptosis of activated cells” value in [5] (doses of 0.625 and 1.25 mcg/ml) is “does not have any effect”. In addition, the entries for the “cytotoxic activity of T lymphocytes” value in [6] (dose of 0.625 mcg/ml) and in [6] (dose range of 2.5-10 mcg/ml) were “increase” and “inhibition”, respectively. Also, the entries for the “number of blast cells” value in data set [6] (dose of 0.625 mcg/ml) and in data set [6] (dose range of 2.5-10 mcg/ml) were “increase” and “inhibition”, respectively. In data set [7] (FIG. 2A), the “peak of stimulating activity, CD4+ cells positive for IFN-γ” value came to 2.5 µg/mL. For the same compound, the “peak of stimulating activity, CD4+ cells positive for IL2” value in data set [7] (FIG. 2B) lay in the range of 1.25 to 2.5 µg/mL. For the same compound, the “peak of stimulating activity, CD4+ cells positive for IL4” value in data set [7] (FIG. 2C) was 0.625 µg/mL. Besides, the “mortality of activated cells” value is listed as “dose-dependent increase” in data set [8] (dose range of 2.5-10 mcg/ml); “does not have any effect” in data set [8] (doses of 0.625 and 1.25 mcg/ml). Besides, the “percentage of CD4+ cells” value in [9] (all tested doses) is on record as “does not induce any variation”. Besides, the “percentage of activated CD8+ cells” value in data set [9] (dose range of 2.5-10 mcg/ml) is “dose-dependent decrease”; in data set [9] (lower doses (below 2.5 mcg/ml)), “does not induce any variation”. For the same compound, the cell proliferation entry in data set [10] (dose range of 2.5-10 mcg/ml, FIGS. 3A and 3B) is “dose-dependent inhibition”. Also, the “number of treated cells” value in data set [10] (doses of 0.625 and 1.25 mcg/ml, FIG. 3A) is on record as “statistically significant increase”. Further, in data set [10] (doses of 0.625 and 1.25 mcg/ml, FIG. 3B), the “ability to synthesize DNA” value was “statistically significant increase”.

Regarding `Oc1ccc(/C=C/c2cc(O)cc(O)c2)cc1` [trans-resveratrol], the platelet aggregation result in data set [11] is listed as “inhibits”. Moreover, in [1], the “halving time in culture medium” value amounted to 28 h and the “amount still present at the end of the test” value was “not present as such”. Further, in data set [12], the cyclo-oxygenase activity entry was “inhibits”. In addition, the tumor genesis entry in data set [13] is on record as “inhibit tumor genesis”. Moreover, in [14], the “cellular cycle of HL60 cells” value was “induce the stop of the cellular cycle in the transition from stage S to stage G2”. Further, in data set [14] (high doses), the “apoptosis of HL60 cells” value is reported as “induce apoptosis” and the “expression of CD95L in HL60 cells” value is recorded as “regulate the expression of CD95L”. In addition, in data set [15], the “growth of MCF-7 cells” value was “inhibit”.

The values are drawn from patent publication US20080070851A1, “METHOD FOR THE EXTRACTION OF […] ACTIVE PRODUCTS FROM SPERMATOPHYTE PLANTS, PRODUCTS THUS OBTAINED AND THEIR USE IN THE MEDICAL FIELD, IN […] AS SUBSTANCES WITH IMMUNOMODULATING ACTIVITY” (Institudo Agrario Di S. Michele All'Adige, priority 2000, published 2008).
